The results in this text go back to patent US9988627B2, “Formats for organic compounds for use in RNA interference” (NOVARTIS AG, priority 2013, dated 2018).

One data set relates to human APOC3. In words: 18-mer with internal spacer RNAi agents, residual mRNA in Huh7 at 15 nM. Format: cell-based. From the text: In the various RNAi agents described in this example, a nucleotide at any of positions 1 to 18 was individually replaced by a spacer subunit, and RNA interference activity was retained. The 3′ end of each strand terminates in a phosphate or modified internucleoside linker and further comprises, in 5′ to 3′ order, a second spacer, a second phosphate or modified internucleotide linker, and a 3′ end cap.
Similarly, U027, A027, G027 indicate that the nucleotides U, A or G, respectively, are absent and have been replaced by a spacer, which is ribitol. The target used in human APOC3. The numbers in columns 2 represent residual mRNA levels; thus, 5.8 in column 2, row 2, indicates residual mRNA level of 5.8% or 94.2% gene knockdown. SD, standard deviation.

The subject of a further data set is Hepcidin (HAMP) mRNA. The experiment in a line: Hepcidin mRNA down regulation in HuH-7 cells by 18-mer HAMP siRNA-PAZ ligand conjugates. Format: cell-based, Homo sapiens. Conditions: format S402+ribitol+MOE clamp. From the text: Potency of 18-mer HAMP (Hepcidin) siRNA-PAZ Ligand Conjugates is studied.
A variety of constructs were made using the same two sequences. […] A variety of 3′ end caps is also used.
Hepcidin mRNA down regulation in HuH-7 cells is studied at 3 doses.
Two test sequences used are hs_HAMP_400 and 402. “hs” indicates “Homo sapiens”. 400 is a sequence beginning at position 400 and 402 is an overlapping sequence […]
Various other hs_HAMP 400 and 402 are depicted in FIG. 5A (Guide or antisense strand) and 5B (corresponding Sense strand).
This Table indicates the Nickname (“Oligo Identifier”) for the 3′ end cap, and the DMT, Succinate and Carboxylate variants thereof; the Carboxylate Kd; the KD (knockdown) mediated by a Hepcidin RNAi agent comprising the 3′ end cap (format: S402+ribitol+MOE clamp) at 5 nM in vitro; and the approximate (approx.) IC50

The test system of data set [1] is hepcidin (Hamp1) mRNA in liver. The experiment in a line: In vivo hepcidin knockdown in mouse liver (mRNA-qPCR), LNP569 Hamp254 18-mers. Conditions: 1×3 mg/kg i.v., 48 h (day 2). The procedure:
PBS: phosphate-buffered saline (negative control). This experiment was performed in vivo in the mouse. These were single 3 mg/kg dose i.v., and Hepcidin mRNA knockdown in liver was measured after 2 and 7 days.
LNP569 is a lipid nanoparticle preparation of the RNAi agent.
Two timepoints—48 and 168 hrs post-injection (both 3 mg/kg).
Assess hepcidin knockdown in liver (mRNA-qPCR)

Another data set has as its system FVII (Factor VII). The experiment in a line: RNA interference of 3′-capped mF7-III siRNAs against FVII (FIG. 2). The data set is classed as cell-based, mouse. The settings on record: 19-mer blunt-ended mF7-III siRNA, A12S17.

“Also recorded” adds a separate entry of the source.

For the molecule “15 (sense GACAGUAUUCUCAGUGCU; antisense AGCCUGAGAAUACUGUC; siRNA; modified with OMe, F, MOE, ribitol spacers, code 006 undefined, further chemistry not given here) [compound 15]”, the “% Res mRNA_Huh7_15 nM” value in the data set with human APOC3 is listed as 18.3%.

In the case of `OCCCCCCO` [C6, 1,6-hexane-diol], in the data set with Hepcidin (HAMP) mRNA, the “Hepcidin KD at 5 nM in vitro (%)” value was found to be 66%. Also, in data set [1], the “Hepcidin knockdown in vivo at 48 hours post-dose” value was “more efficacious than the 21-mer format; also recorded: able to mediate Hepcidin knockdown”. Moreover, the “ability to mediate RNA interference” value in the data set on FVII (Factor VII) is listed as “allow the RNAi agent to perform RNA interference”.

With “20 (sense GACAGUAUUCUCAGUGCU; antisense AGCACUGAGAAUACUGUC; siRNA; chemical modifications, end caps, further chemistry not given here) [compound 20]”, the “% Res mRNA_Huh7_15 nM” value in the data set with human APOC3 is given as 9.7%.

“21 (sense GpGpApC004pApGpU004pApU004pU004pC004pU004pC004pApGpU004pGpC004pU004pU002pU002; antisense ApGpCpApCpU004pGpApGpApApU004pApCpU004pGpU004pCpCpU002pU002; chemical modifications, as printed in the source, key not given here) [compound 21]”: the “% Res mRNA_Huh7_15 nM” value in the data set on human APOC3 is reported as 6.5%.

As for “7 (sense GACAGUAUUCUCAGUGCU; antisense AGCACUGAGAAACUGUC; chemical modifications, end caps, chemistry not fully specified) [compound 7]”, the “% Res mRNA_Huh7_15 nM” value in the data set on human APOC3 is reported as 22%.

Take “14 (sense GACAGUAUUCUCAGUGCU; antisense AGCAUGAGAAUACUGUC; siRNA; modified with OMe, F, MOE, ribitol spacers, code 006 undefined, further chemistry not given here) [compound 14]”: the “% Res mRNA_Huh7_15 nM” value in the data set on human APOC3 is 3.2%.

As to “9 (sense GACAGUAUUCUCAGUGCU; antisense AGCACUGAGAUACUGUC; siRNA; 2'-modified nucleotides, phosphates, 3' end caps, further chemistry not given here) [compound 9]”, the “% Res mRNA_Huh7_15 nM” value in the data set on human APOC3 stood at 56.7%.

With “13 (sense GACAGUAUUCUCAGUGCU; antisense AGCACGAGAAUACUGUC; siRNA; modified with OMe, F, MOE, DNA, ribitol spacers, code 006 undefined, further chemistry not given here) [compound 13]”, the “% Res mRNA_Huh7_15 nM” value in the data set with human APOC3 was determined as 4.4%.

For the molecule “4 (sense GACAGUAUUCUCAGUGCU; antisense AGCACUGAGAAUACGUC; chemical modifications, end caps, chemistry not fully specified) [compound 4]”, in the data set on human APOC3, the “% Res mRNA_Huh7_15 nM” value was 9.5%.

Regarding `C1C2CC3CC1CC(C2)C3` [Adamantane, adamantane], in the data set with FVII (Factor VII), the “ability to mediate RNA interference” value was “allow the RNAi agent to perform RNA interference”.

For “19 (sense GACAGUAUUCUCAGUGCU; antisense AGCACUGAGAAUACUGUC; chemical modifications, end caps, chemistry not fully specified) [compound 19]”, the “% Res mRNA_Huh7_15 nM” value in the data set with human APOC3 stood at 6.3%.

For the molecule “5 (sense GACAGUAUUCUCAGUGCU; antisense AGCACUGAGAAUAUGUC; chemical modifications, end caps, chemistry not fully specified) [compound 5]”, the “% Res mRNA_Huh7_15 nM” value with human APOC3 is reported as 25.6%.

“11 (sense GACAGUAUUCUCAGUGCU; antisense AGCACUGGAAUACUGUC; siRNA; modified with OMe, F, MOE, ribitol spacers, code 006 undefined, further chemistry not given here) [compound 11]”: in the data set on human APOC3, the “% Res mRNA_Huh7_15 nM” value was determined as 22.3%.

For “18 (sense GACAGUAUUCUCAGUGCU; antisense GCACUGAGAAUACUGUC; chemical modifications, end caps, chemistry not fully specified) [compound 18]”, the “% Res mRNA_Huh7_15 nM” value with human APOC3 was found to be 7.6%.

For the molecule “6 (sense GACAGUAUUCUCAGUGCU; antisense AGCACUGAGAAUCUGUC; chemical modifications, end caps, chemistry not fully specified) [compound 6]”, the “% Res mRNA_Huh7_15 nM” value with human APOC3 is given as 33.1%.

Turning to `COc1ccc(C(OCc2cc(Br)cc(CO)c2)(c2ccccc2)c2ccc(OC)cc2)cc1` [compound 2, (3-((bis(4-methoxyphenyl)(phenyl)methoxy)methyl)-5-bromophenyl)methanol], in the data set on human APOC3, the “% Res mRNA_Huh7_15 nM” value is 3.4%.

For “1 (sense GACAGUAUUCUCAGUGCU; antisense AGCACUGAGAAUACUGU; chemical modifications, end caps, chemistry not fully specified) [compound 1]”, the “% Res mRNA_Huh7_15 nM” value with human APOC3 stood at 5.8%.

Regarding “12 (sense GACAGUAUUCUCAGUGCU; antisense AGCACUAGAAUACUGUC; siRNA; modified with OMe, F, MOE, ribitol spacers, code 006 undefined, further chemistry not given here) [compound 12]”, the “% Res mRNA_Huh7_15 nM” value with human APOC3 was 10.5%.

For the molecule “17 (sense GACAGUAUUCUCAGUGCU; antisense ACACUGAGAAUACUGUC; chemical modifications, end caps, chemistry not fully specified) [compound 17]”, the “% Res mRNA_Huh7_15 nM” value in the data set with human APOC3 was found to be 57.4%.

As to “16 (sense GACAGUAUUCUCAGUGCU; antisense AGACUGAGAAUACUGUC; siRNA; modified with OMe, F, MOE, ribitol spacers, code 006 undefined, further chemistry not given here) [compound 16]”, in the data set on human APOC3, the “% Res mRNA_Huh7_15 nM” value is recorded as 6.8%.

Take `OCCOCCOCCO` [Triethylene glycol, triethylene glycol]: the “ability to mediate RNA interference” value in the data set with FVII (Factor VII) is reported as “allow the RNAi agent to perform RNA interference”.

In the case of “8 (sense GACAGUAUUCUCAGUGCU; antisense AGCACUGAGAUACUGUC; chemical modifications, end caps, chemistry not fully specified) [compound 8]”, the “% Res mRNA_Huh7_15 nM” value with human APOC3 came out at 23.8%.

Take “3 (sense GACAGUAUUCUCAGUGCU; antisense AGCACUGAGAAUACUUC; chemical modifications, end caps, chemistry not fully specified) [compound 3]”: in the data set on human APOC3, the “% Res mRNA_Huh7_15 nM” value worked out at 11.3%.

In the case of “10 (sense GACAGUAUUCUCAGUGCU; antisense AGCACUGAAAUACUGUC; siRNA; modified with OMe, F, MOE, ribitol spacers, code 006 undefined, further chemistry not given here) [compound 10]”, the “% Res mRNA_Huh7_15 nM” value in the data set on human APOC3 came out at 55%.
